Experimental data taken from PubChem BioAssay AID2060908 (Molecular Pharmacology Branch, DTP, NCI, 2025).

Tested on: 186277-243-T-J2-PDC complex spheroids, viability
Assay: Anticancer human tumor 186277-243-T-J2-PDC patient-derived colon adenocarcinoma cell line growth inhibition [RAS]
Conditions: for IC50: curve of first compound; for viability, T/C: stronger effect = lower value
How it was run: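 Tumour cells grown as complex spheroids with HUVEC endothelial cells and mesenchymal stem cells, treated with RAS pathway inhibitor combinations. Each agent spans half-log steps from near clinical Cmax, or 10 microM where Cmax is unknown.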

[1] = second compound 0.000949 µM, first compound 0.0316 µM
[2] = second compound 0.000949 µM, first compound 0.1 µM
[3] = second compound 0.000949 µM, first compound 0.316 µM
[4] = second compound 0.000949 µM, first compound 1 µM
[5] = second compound 0.000949 µM, first compound 3.16 µM
[6] = second compound 0.000949 µM, first compound 10 µM
[7] = second compound 0.003 µM, first compound 0.0316 µM
[8] = second compound 0.003 µM, first compound 0.1 µM
[9] = second compound 0.003 µM, first compound 0.316 µM
[10] = second compound 0.003 µM, first compound 1 µM
[11] = second compound 0.003 µM, first compound 3.16 µM
[12] = second compound 0.003 µM, first compound 10 µM
[13] = second compound 0.00949 µM, first compound 0.0316 µM
[14] = second compound 0.00949 µM, first compound 0.1 µM
[15] = second compound 0.00949 µM, first compound 0.316 µM
[16] = second compound 0.00949 µM, first compound 1 µM
[17] = second compound 0.00949 µM, first compound 3.16 µM
[18] = second compound 0.00949 µM, first compound 10 µM
[19] = second compound 0.03 µM, first compound 0.0316 µM
[20] = second compound 0.03 µM, first compound 0.1 µM
[21] = second compound 0.03 µM, first compound 0.316 µM
[22] = second compound 0.03 µM, first compound 1 µM
[23] = second compound 0.03 µM, first compound 3.16 µM
[24] = second compound 0.03 µM, first compound 10 µM
[25] = second compound 0.0949 µM, first compound 0.0316 µM
[26] = second compound 0.0949 µM, first compound 0.1 µM
[27] = second compound 0.0949 µM, first compound 0.316 µM
[28] = second compound 0.0949 µM, first compound 1 µM
[29] = second compound 0.0949 µM, first compound 3.16 µM
[30] = second compound 0.0949 µM, first compound 10 µM
[31] = second compound 0.3 µM, first compound 0.0316 µM
[32] = second compound 0.3 µM, first compound 0.1 µM
[33] = second compound 0.3 µM, first compound 0.316 µM
[34] = second compound 0.3 µM, first compound 1 µM
[35] = second compound 0.3 µM, first compound 3.16 µM
[36] = second compound 0.3 µM, first compound 10 µM
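Further: spheroids exposed to compounds for 7 days before viability read.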

SMILES: CC(C)NCC(C(=O)N1CCN(c2ncnc3c2C(C)CC3O)CC1)c1ccc(Cl)cc1 (stereo unspecified) + CCn1c(-c2cc(N3CCN(C)CC3)cnc2C(C)OC)c2c3cc(ccc31)-c1csc(n1)CC(NC(=O)C1CC1C)C(=O)N1CCCC(N1)C(=O)OCC(C)(C)C2
- IC50 (second compound 0.000949 µM): 0.841 µM
- IC50 (second compound 0.003 µM): 0.467 µM
- IC50 (second compound 0.00949 µM): 0.0692 µM
- IC50 (second compound 0.03 µM): < 0.0316 µM
- IC50 (second compound 0.0949 µM): < 0.0316 µM
- IC50 (second compound 0.3 µM): < 0.0316 µM
- viability, T/C [1]: 111%
- viability, T/C [2]: 101%
- viability, T/C [3]: 74.8%
- viability, T/C [4]: 42.8%
- viability, T/C [5]: 34.8%
- viability, T/C [6]: 20.4%
- viability, T/C [7]: 98.6%
- viability, T/C [8]: 81.6%
- viability, T/C [9]: 58.8%
- viability, T/C [10]: 33.8%
- viability, T/C [11]: 16.1%
- viability, T/C [12]: 7.85%
- viability, T/C [13]: 51.6%
- viability, T/C [14]: 51%
- viability, T/C [15]: 28%
- viability, T/C [16]: 11.4%
- viability, T/C [17]: 4.9%
- viability, T/C [18]: 1.96%
- viability, T/C [19]: 13.1%
- viability, T/C [20]: 15.3%
- viability, T/C [21]: 7.36%
- viability, T/C [22]: 3.74%
- viability, T/C [23]: 1.65%
- viability, T/C [24]: 0.66%
- viability, T/C [25]: 6.83%
- viability, T/C [26]: 6.82%
- viability, T/C [27]: 4.35%
- viability, T/C [28]: 2.2%
- viability, T/C [29]: 1.09%
- viability, T/C [30]: 0.38%
- viability, T/C [31]: 6.18%
- viability, T/C [32]: 5.27%
- viability, T/C [33]: 3.57%
- viability, T/C [34]: 1.82%
- viability, T/C [35]: 0.88%
- viability, T/C [36]: 0.37%

SMILES: CC(C)n1nc(-c2ccc3oc(N)nc3c2)c2c(N)ncnc21 + CCn1c(-c2cc(N3CCN(C)CC3)cnc2C(C)OC)c2c3cc(ccc31)-c1csc(n1)CC(NC(=O)C1CC1C)C(=O)N1CCCC(N1)C(=O)OCC(C)(C)C2
- IC50 (second compound 0.000949 µM): 0.0466 µM
- IC50 (second compound 0.003 µM): 0.0275 µM
- IC50 (second compound 0.00949 µM): < 0.000316 µM
- IC50 (second compound 0.03 µM): < 0.000316 µM
- IC50 (second compound 0.0949 µM): < 0.000316 µM
- IC50 (second compound 0.3 µM): < 0.000316 µM
- viability, T/C (second compound 0.000949 µM, first compound 0.000316 µM): 104%
- viability, T/C (second compound 0.000949 µM, first compound 0.001 µM): 109%
- viability, T/C (second compound 0.000949 µM, first compound 0.00316 µM): 87.9%
- viability, T/C (second compound 0.000949 µM, first compound 0.01 µM): 69.8%
- viability, T/C [1]: 62.2%
- viability, T/C [2]: 34.8%
- viability, T/C (second compound 0.003 µM, first compound 0.000316 µM): 106%
- viability, T/C (second compound 0.003 µM, first compound 0.001 µM): 104%
- viability, T/C (second compound 0.003 µM, first compound 0.00316 µM): 88.3%
- viability, T/C (second compound 0.003 µM, first compound 0.01 µM): 72.9%
- viability, T/C [7]: 46.7%
- viability, T/C [8]: 20.1%
- viability, T/C (second compound 0.00949 µM, first compound 0.000316 µM): 49.4%
- viability, T/C (second compound 0.00949 µM, first compound 0.001 µM): 47.4%
- viability, T/C (second compound 0.00949 µM, first compound 0.00316 µM): 37.7%
- viability, T/C (second compound 0.00949 µM, first compound 0.01 µM): 30.8%
- viability, T/C [13]: 12.7%
- viability, T/C [14]: 5.22%
- viability, T/C (second compound 0.03 µM, first compound 0.000316 µM): 14.8%
- viability, T/C (second compound 0.03 µM, first compound 0.001 µM): 12.5%
- viability, T/C (second compound 0.03 µM, first compound 0.00316 µM): 9.71%
- viability, T/C (second compound 0.03 µM, first compound 0.01 µM): 6.52%
- viability, T/C [19]: 4.01%
- viability, T/C [20]: 2.6%
- viability, T/C (second compound 0.0949 µM, first compound 0.000316 µM): 7.46%
- viability, T/C (second compound 0.0949 µM, first compound 0.001 µM): 6.37%
- viability, T/C (second compound 0.0949 µM, first compound 0.00316 µM): 5.35%
- viability, T/C (second compound 0.0949 µM, first compound 0.01 µM): 3.33%
- viability, T/C [25]: 2.32%
- viability, T/C [26]: 1.41%
- viability, T/C (second compound 0.3 µM, first compound 0.000316 µM): 5.75%
- viability, T/C (second compound 0.3 µM, first compound 0.001 µM): 5.69%
- viability, T/C (second compound 0.3 µM, first compound 0.00316 µM): 4.23%
- viability, T/C (second compound 0.3 µM, first compound 0.01 µM): 2.81%
- viability, T/C [31]: 2.02%
- viability, T/C [32]: 1.43%

SMILES: C[C@@H](NC(=O)c1ncnc(N)c1Cl)c1ncc(C(=O)Nc2cc(C(F)(F)F)c(Cl)cn2)s1 + CCn1c(-c2cc(N3CCN(C)CC3)cnc2C(C)OC)c2c3cc(ccc31)-c1csc(n1)CC(NC(=O)C1CC1C)C(=O)N1CCCC(N1)C(=O)OCC(C)(C)C2
- IC50 (second compound 0.000949 µM): > 10 µM
- IC50 (second compound 0.003 µM): > 10 µM
- IC50 (second compound 0.00949 µM): 3.63 µM
- IC50 (second compound 0.03 µM): < 0.0316 µM
- IC50 (second compound 0.0949 µM): < 0.0316 µM
- IC50 (second compound 0.3 µM): < 0.0316 µM
- viability, T/C [1]: 104%
- viability, T/C [2]: 87.5%
- viability, T/C [3]: 88%
- viability, T/C [4]: 88.7%
- viability, T/C [5]: 85.9%
- viability, T/C [6]: 73.6%
- viability, T/C [7]: 108%
- viability, T/C [8]: 114%
- viability, T/C [9]: 109%
- viability, T/C [10]: 82.6%
- viability, T/C [11]: 93.2%
- viability, T/C [12]: 54.4%
- viability, T/C [13]: 61.7%
- viability, T/C [14]: 83.8%
- viability, T/C [15]: 78.6%
- viability, T/C [16]: 71.4%
- viability, T/C [17]: 54.2%
- viability, T/C [18]: 19.8%
- viability, T/C [19]: 21.2%
- viability, T/C [20]: 23.7%
- viability, T/C [21]: 25.3%
- viability, T/C [22]: 20.9%
- viability, T/C [23]: 16.9%
- viability, T/C [24]: 10%
- viability, T/C [25]: 9.22%
- viability, T/C [26]: 10.4%
- viability, T/C [27]: 10%
- viability, T/C [28]: 9.11%
- viability, T/C [29]: 8.59%
- viability, T/C [30]: 7.09%
- viability, T/C [31]: 7.68%
- viability, T/C [32]: 8.08%
- viability, T/C [33]: 7.77%
- viability, T/C [34]: 7.85%
- viability, T/C [35]: 7.78%
- viability, T/C [36]: 4.79%
